Patent US11447577B2, “Cyclodextrin based polymers, methods, compositions and applications thereof” (priority 2016, dated 2022)

What was measured:
Npc1^nih mice = test: Efficacy study in Npc1^nih mouse model (body weight, balance beam test, survival); assay type: in vivo; conditions: HPβCD 4 mg/g s.c. weekly starting at PN7
Description: Npc1^nih mouse model is a model for an early onset and faster progressing human diseases. This mouse model arises from the insertion of an active retrotransposon, a spontaneous mutation, which generated a frameshift resulting in a “knock out” of Npc1 gene: small amount of truncated Npc1 mRNA and no protein.
Npc1^nih mice received Polymer B (0.8 mg/g body weight) via injection (s.c.) at the scruff of the neck at PN4, PN7, and PN14. Another group of Npc1^nih mice received HPβCD (4 mg/g body weight; obtained from Sigma-Aldrich and used as received, CAS: 128446-35-5) via injected (s.c.) weekly starting at PN7. Control mice received PBS (sham). Mean volume of the injection was between 50 to 100 μL according to mice size. The body weight, motor behaviour, and survival rate of each group of mice were analyzed.
Example 5 was repeated for Npc1^nih mice receiving Polymer A (0.4 mg/g body weight) via injected (s.c.) weekly starting at PN7 and ending at PN70. The body weight and motor behaviours were analyzed. The results of these analyses were compared to the control mice results from Example 5. […]
The effects of various cyclodextrin polymers, doses, and injection schedules were tested on Npc1^nih mice. […] The body weight, motor behaviour, and survival rate of each group of mice were analyzed.

in vivo = test: in vivo; parameters: species or system mice; conditions: mouse, sc, 500 mg/kg
Description: The effects of various cyclodextrin polymers were tested on WT mice. WT mice were injected with a single sub-cutaneous dose of 500 mg/kg of HPbCD, Polymer A, or Polymer B. PK measurements were taken every 2 hours via HPLC-UV measurements of mouse plasma. FIG. 28 presents the half-life results of this experiment. […] The recovery was 90% from plasma and tissues.

nmf164 mice = conditions: 4000 mg/kg; cited from earlier work

For `CC(O)COC[C@H]1O[C@@H]2O[C@H]3[C@H](O)[C@@H](O)[C@@H](O[C@H]4[C@H](O)[C@@H](O)[C@@H](O[C@H]5[C@H](O)[C@@H](O)[C@@H](O[C@H]6[C@H](O)[C@@H](O)[C@@H](O[C@H]7[C@H](O)[C@@H](O)[C@@H](O[C@H]8[C@H](O)[C@@H](O)[C@@H](O[C@H]1[C@H](O)[C@H]2O)O[C@@H]8COCC(C)O)O[C@@H]7COCC(C)O)O[C@@H]6COCC(C)O)O[C@@H]5COCC(C)O)O[C@@H]4COCC(C)O)O[C@@H]3COCC(C)O` (stereo partly drawn) [HPβCD, Hydroxypropyl-β-cyclodextrin], which “Body weight and motor behaviour assessment together (rescuing efficacy)” value (Npc1^nih mice) is on record?
The value was “rescuing efficacy”.

What about the Survival (Npc1^nih mice; control about 10-11 weeks) of the same compound?
The Survival was 16-17 weeks.

And the bioavailability (in vivo)?
The bioavailability was 42%.

What about the Median survival (nmf164 mice) of the same compound?
The Median survival was 175 to 185 days.
